Measurements published in patent US20020055528A1, “Artemisinin analogs having antimalarial, antiproliferative, and antitumor activities and chemoselective methods of making the same” (priority 1999, published 2002).

Key:
Assay type in all cases: cell-based
SR = assay: NCI 60 cell line screen (SRB), Leukemia
EKVX = assay: NCI 60 cell line screen (SRB), Non-Small Cell Lung Cancer
NCI-H23 = assay: as above
HCT-15 = assay: NCI 60 cell line screen (SRB), Colon Cancer
KM12 = assay: NCI 60 cell line screen (SRB), Colon Cancer
SW-620 = assay: NCI 60 cell line screen (SRB), Colon Cancer
HCC-2998 = assay: NCI 60 cell line screen (SRB), Colon Cancer
SF-268 = assay: NCI 60 cell line screen (SRB), CNS Cancer
SF-295 = assay: NCI 60 cell line screen (SRB), CNS Cancer
SNB-19 = assay: NCI 60 cell line screen (SRB), CNS Cancer
SNB-75 = assay: NCI 60 cell line screen (SRB), CNS Cancer
MALME-3M = assay: NCI 60 cell line screen (SRB), Melanoma
SK-MEL2 = assay: NCI 60 cell line screen (SRB), Melanoma
IGROVI = assay: NCI 60 cell line screen (SRB), Ovarian Cancer
OVCAR-3 = assay: NCI 60 cell line screen (SRB), Ovarian Cancer; details: PG=0
OVCAR-4 = assay: NCI 60 cell line screen (SRB), Ovarian Cancer
OVCAR-8 = assay: NCI 60 cell line screen (SRB), Ovarian Cancer
SK-OV-3 = assay: NCI 60 cell line screen (SRB), Ovarian Cancer
786-0 = assay: NCI 60 cell line screen (SRB), Renal Cancer
ACHN = assay: NCI 60 cell line screen (SRB), Renal Cancer
SN12C = assay: NCI 60 cell line screen (SRB), Renal Cancer
TK-10 = assay: NCI 60 cell line screen (SRB), Renal Cancer
MCF7 = assay: NCI 60 cell line screen (SRB), Breast Cancer
NCI/ADR-RES = assay: NCI 60 cell line screen (SRB), Breast Cancer
[1] = tested on: MB231/ATCC (second line of the wrapped label, with values of its own); assay: NCI 60 cell line screen (SRB), Breast Cancer
HS 578T = assay: NCI 60 cell line screen (SRB), Breast Cancer
MDA-MB-435 = assay: NCI 60 cell line screen (SRB), Breast Cancer

CC1=C(C=Cc2cccc(C=CC3=C(C)C4CCC(C)C5CCC6(C)OOC45C(O3)O6)c2)OC2OC3(C)CCC4C(C)CCC1C24OO3 (stereo not drawn) [VII-f]
Log10TGI (SR; PG=0): −6.19 log10M | Log10GI50 (SR; PG=+50): −6.19 log10M | Log10GI50 (SR; Table IV (LC50, PG=−50)): >−4.00 log10M | Log10TGI (EKVX; PG=0): −4.58 log10M | Log10GI50 (EKVX; PG=+50): −6.21 log10M | Log10GI50 (EKVX; Table IV (LC50, PG=−50)): >−4.00 log10M | Log10TGI (NCI-H23; PG=0): −4.36 log10M | log10 GI50 or LC50 (see conditions) (NCI-H23; PG=+50): −5.32 log10M | log10 GI50 or LC50 (see conditions) (NCI-H23; Table IV (LC50, PG=−50)): >−4.00 log10M | Log10TGI (HCT-15; PG=0): −4.82 log10M | log10 GI50 (PG=+50) or LC50 (PG=−50), per row condition (HCT-15; PG=+50): −6.13 log10M | log10 GI50 (PG=+50) or LC50 (PG=−50), per row condition (HCT-15; Table IV (LC50, PG=−50)): >−4.00 log10M | Log10TGI (KM12; PG=0): >−4.00 log10M | Log10GI50 (KM12; PG=+50): −6.23 log10M | Log10GI50 (KM12; Table IV (LC50, PG=−50)): >−4.00 log10M | Log10TGI (SW-620; PG=0): >−4.00 log10M | Log10GI50 (SW-620; PG=+50): −5.90 log10M | Log10TGI (HCC-2998; PG=0): >−4.00 log10M | Log10GI50 (HCC-2998; PG=+50): −5.59 log10M | Log10TGI (SF-268; PG=0): >−4.00 log10M | Log10GI50 (SF-268; PG=+50): −5.70 log10M | Log10TGI (SF-295; PG=0): >−4.00 log10M | Log10GI50 (SF-295; PG=+50): −5.25 log10M | Log10TGI (SNB-19; PG=0): >−4.33 log10M | Log10GI50 or Log10LC50 (see condition) (SNB-19; PG=+50): −5.85 log10M | Log10GI50 or Log10LC50 (see condition) (SNB-19; Table IV (LC50, PG=−50)): >−4.33 log10M | Log10 GI50 (PG=+50) or LC50 (PG=−50) (SNB-75; PG=+50): −5.84 log10M | Log10 GI50 (PG=+50) or LC50 (PG=−50) (SNB-75; Table IV (LC50, PG=−50)): >−4.00 log10M | Log10TGI (MALME-3M; PG=0): −4.82 log10M | Log10GI50 (MALME-3M; PG=+50): −5.65 log10M | Log10GI50 (MALME-3M; Table IV (LC50, PG=−50)): >−4.00 log10M | Log10TGI (SK-MEL2; PG=0): −4.26 log10M | Log10 GI50 or LC50 (per conditions) (SK-MEL2; PG=+50): −5.85 log10M | Log10 GI50 or LC50 (per conditions) (SK-MEL2; Table IV (LC50, PG=−50)): >−4.00 log10M | Log10TGI (IGROVI; PG=0): >−4.00 log10M | Log10GI50 (IGROVI; PG=+50): −4.55 log10M | Log10GI50 (IGROVI; Table IV (LC50, PG=−50)): >−4.00 log10M | Log10TGI (OVCAR-3): >−4.00 log10M | Log10GI50 (OVCAR-4; OVCAR-4, PG=+50): −5.93 log10M | Log10GI50 (OVCAR-4; Table IV (LC50, PG=−50), OVCAR−4): >−4.00 log10M | Log10TGI (OVCAR-8; PG=0): −4.21 log10M | Log10GI50 (OVCAR-8; PG=+50): −5.57 log10M | Log10GI50 (OVCAR-8; Table IV (LC50, PG=−50)): >−4.00 log10M | Log10TGI (SK-OV-3; PG=0): >−4.00 log10M | Log10GI50 (SK-OV-3; PG=+50): −4.52 log10M | Log10GI50 (SK-OV-3; Table IV (LC50, PG=−50)): >−4.00 log10M | Log10TGI (786-0; PG=0): >−4.00 log10M | Log10GI50 (786-0; PG=+50): −5.40 log10M | Log10GI50 (786-0; Table IV (LC50, PG=−50)): >−4.00 log10M | Log10TGI (ACHN; PG=0): >−4.00 log10M | Log10 GI50 or LC50 (see conditions) (ACHN; PG=+50): −5.71 log10M | Log10 GI50 or LC50 (see conditions) (ACHN; Table IV (LC50, PG=−50)): >−4.00 log10M | Log10TGI (SN12C; SN12C, PG=0): >−4.00 log10M | Log10GI50 (SN12C; SNI2C, PG=+50): −5.73 log10M | Log10GI50 (SN12C; Table IV (LC50, PG=−50), SN12C): >−4.00 log10M | Log10TGI (TK-10; PG=0): >−4.00 log10M | Log10GI50 (TK-10; PG=+50): −5.44 log10M | Log10GI50 (TK-10; Table IV (LC50, PG=−50)): >−4.00 log10M | Log10TGI (MCF7; PG=0): >−4.00 log10M | Log10GI50 (MCF7; PG=+50): −6.06 log10M | Log10GI50 (MCF7; Table IV (LC50, PG=−50)): >−4.00 log10M | Log10TGI (NCI/ADR-RES; PG=0): −4.34 log10M | Log10GI50 (NCI/ADR-RES; PG=+50): −5.29 log10M | Log10GI50 (NCI/ADR-RES; Table IV (LC50, PG=−50)): >−4.00 log10M | Log10GI50 ([1]; PG=+50): −6.13 log10M | Log10GI50 ([1]; Table IV (LC50, PG=−50)): >−4.00 log10M | Log10TGI (HS 578T; PG=0): −4.31 log10M | Log10GI50 (HS 578T; PG=+50): −5.94 log10M | Log10GI50 (HS 578T; Table IV (LC50, PG=−50)): >−4.00 log10M | Log10TGI (MDA-MB-435; MDA-MB-435, PG=0): >−4.00 log10M | Log10GI50 (MDA-MB-435; MDA-MB−435, PG=+50): −5.86 log10M | Log10GI50 (MDA-MB-435; Table IV (LC50, PG=−50), MDA-MB-435): >−4.00 log10M
